For the assay, the target named is BCL-2 recombinant protein (Homo sapiens, UniProt P10415). Put plainly: Cell free Bcl-2:Bak affinity assay (Bcl-2 Bak), HTRF competition of FAM-Bak peptide. The assay is classed as binding. Particulars: 4 nM BCL-2 recombinant protein, 100 nM FAM-Bak; for inhibition at 1 µM: 1 μM compound, read-out: potency (% inhibition at 1 μM); for IC50: 10-concentration IC50 mode, read-out: potency (IC50). The method, then:
Biological Assays: Cell Free Bcl-2:Bak Affinity Assay (Bcl-2 Bak)
The assay is based on the competition of fluorescently labeled peptide binding to BCL-2 and the binding is monitored by HTRF signals between anti-GST-Tb and FAM-peptide using GST-Tag BCL proteins. Testing compounds were dissolved in DMSO at 10 mM and tested in 10-concentration IC50 mode. The compounds of interest in DMSO were added in 3-fold serial dilution to each well containing 4 nM of BCL-2 recombinant protein, 20 mM K Phosphate, pH 7.5, 50 mM NaCl, 1 mM EDTA, 0.005% Triton X-100, by using acoustic technology (Labcyte echo 550), After 10 minutes incubation at room temperature, 100 nM of FAM-Bak was added and incubated for another 10 minutes before addition of Anti-GST-Tb. The plate was then sealed and further incubated at room temperature for 60 minutes in the dark before reading. Percentage of inhibition was calculated by % inhibition=100×(FDMSO−F)/(FDMSO−FPC), in which FDMSO is DMSO control and FPC is a positive control. IC50 values were determined from dose-response curve by fitting the percent inhibition against compound concentration using GraphPad Prism software.
Background: Time-resolved FRET reads energy transfer from a long-lived donor to a nearby acceptor.

Bounds are passed on as bounds.

21 compounds from US11622970B2, “BCL-2 inhibitors and their use as pharmaceuticals” (PRELUDE THERAPEUTICS INCORPORATED, priority 2020, dated 2023) can be followed below.

Broadly, the inhibition is the percentage by which the read-out fell short of the control. In general, IC50 refers to the point on the concentration scale where inhibition reaches its midpoint.

Chain of BCL-2 recombinant protein (P10415 whole entry): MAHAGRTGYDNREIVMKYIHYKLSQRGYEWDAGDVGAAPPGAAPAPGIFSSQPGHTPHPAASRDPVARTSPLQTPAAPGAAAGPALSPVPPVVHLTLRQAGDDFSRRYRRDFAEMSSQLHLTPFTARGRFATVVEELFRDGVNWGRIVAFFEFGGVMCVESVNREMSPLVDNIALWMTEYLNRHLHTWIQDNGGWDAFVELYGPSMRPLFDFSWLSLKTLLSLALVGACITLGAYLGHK

For the compound `CC1(C)CCC(CN2CCN(c3ccc(S(=O)(=O)NC(=O)c4ccc([N+](=O)[O-])c(OCc5ccccc5)n4)cc3)CC2)=C(c2ccc(Cl)cc2)C1` [Example 51, 6-(benzyloxy)-N-[4-[4-[[2-(4-chlorophenyl)-4,4-dimethylcyclohexen-1-yl]methyl]piperazin-1-yl]phenyl]sulfonyl-5-nitropyridine-2-carboxamide], the inhibition at 1 µM was 50 to 90%. As for `CC1(C)CCC(CN2CCN(c3ccc(S(=O)(=O)NC(=O)c4ccc(F)c(-c5ccncc5)n4)cc3)CC2)=C(c2ccc(Cl)cc2)C1` [Example 61, N-[4-[4-[[2-(4-chlorophenyl)-4,4-dimethyl-cyclohexen-1-yl]methyl]piperazin-1-yl]phenyl]sulfonyl-5-fluoro-6-(4-pyridyl)pyridine-2-carboxamide], the inhibition at 1 µM was less than 50%.

`CC1(C)CCC(CN2CCN(c3ccc(S(=O)(=O)NC(=O)c4cnccn4)cc3)CC2)=C(c2ccc(Cl)cc2)C1` [Example 6, N-([4-[4-[[2-(4-chlorophenyl)-4,4-dimethylcyclohexen-1-yl]methyl]piperazin-1-yl]phenyl]sulfonyl)pyrazine-2-carboxamide]: the inhibition at 1 µM is 50 to 90%. Take `CC1(C)CCC(CN2CCN(c3ccc(S(=O)(=O)NC(=O)C4(c5ccc([N+](=O)[O-])cc5)CC4)cc3)CC2)=C(c2ccc(Cl)cc2)C1` [Example 29, N-([4-[4-[[2-(4-chlorophenyl)-4,4-dimethylcyclohexen-1-yl]methyl]piperazin-1-yl]phenyl]sulfonyl)-1-(4-nitrophenyl)cyclopropane-1-carboxamide]: the inhibition at 1 µM was less than 50%. Still for that read-out and setting: then `COCc1cccc(C(=O)NS(=O)(=O)c2ccc(N3CCN(CC4=C(c5ccc(Cl)cc5)CC(C)(C)CC4)CC3)cc2)c1` [Example 18, N-([4-[4-[[2-(4-chlorophenyl)-4,4-dimethylcyclohexen-1-yl]methyl]piperazin-1-yl]phenyl]sulfonyl)-3-(methoxymethyl)benzamide], with 50 to 90%. `CC1(C)CCC(CN2CCN(c3ccc(S(=O)(=O)NC(=O)c4cc(-c5ccc(F)cc5)no4)cc3)CC2)=C(c2ccc(Cl)cc2)C1` [Example 25, N-([4-[4-[[2-(4-chlorophenyl)-4,4-dimethylcyclohexen-1-yl]methyl]piperazin-1-yl]phenyl]sulfonyl)-3-(4-fluorophenyl)isoxazole-5-carboxamide]: the inhibition at 1 µM lay within 50 to 90%. As to `CC1(C)CCC(CN2CCN(c3ccc(S(=O)(=O)NC(=O)c4ccnc5sccc45)c(Oc4cnc5[nH]ccc5c4)c3)CC2)=C(c2ccc(Cl)cc2)C1` [Example 93, N-[4-[4-[[2-(4-chlorophenyl)-4,4-dimethylcyclohexen-1-yl]methyl]piperazin-1-yl]-2-(1H-pyrrolo[2,3-b]pyridin-5-yloxy)phenyl]sulfonylthieno[2,3-b]pyridine-4-carboxamide], the IC50 is 10 to 100 nM. Still for that read-out and setting: then `Cc1nc(C(=O)NS(=O)(=O)c2ccc(N3CCN(CC4=C(c5ccc(Cl)cc5)CC(C)(C)CC4)CC3)cc2Oc2cnc3[nH]ccc3c2)ccc1Cl` [Example 73, N-[4-[4-[[2-(4-chlorophenyl)-4,4-dimethylcyclohexen-1-yl]methyl]piperazin-1-yl]-2-(1H-pyrrolo[2,3-b]pyridin-5-yloxy)phenyl]sulfonyl-5-chloro-6-methylpyridine-2-carboxamide], with 10 to 100 nM. On the same count and under the same terms, then `COCc1ccc(C(=O)NS(=O)(=O)c2ccc(N3CCN(CC4=C(c5ccc(Cl)cc5)CC(C)(C)CC4)CC3)cc2Oc2cnc3[nH]ccc3c2)cc1[N+](=O)[O-]` [Example 87, N-[4-[4-[[2-(4-chlorophenyl)-4,4-dimethylcyclohexen-1-yl]methyl]piperazin-1-yl]-2-(1H-pyrrolo[2,3-b]pyridin-5-yloxy)phenyl]sulfonyl-4-(methoxymethyl)-3-nitrobenzamide], with 10 to 100 nM.

For `Cc1nc(C(=O)NS(=O)(=O)c2ccc(N3CCN(CC4=C(c5ccc(Cl)cc5)CC(C)(C)CC4)CC3)cc2)ccc1F` [Example 16, N-([4-[4-[[2-(4-chlorophenyl)-4,4-dimethylcyclohexen-1-yl]methyl]piperazin-1-yl]phenyl]sulfonyl)-5-fluoro-6-methyl pyridine-2-carboxamide], the inhibition at 1 µM lay within 50 to 90%. Still for that read-out and setting: then `Cn1ncc2ccc(-c3nc(C(=O)NS(=O)(=O)c4ccc(N5CCN(CC6=C(c7ccc(Cl)cc7)CC(C)(C)CC6)CC5)cc4)ccc3F)cc21` [Example 60, N-[4-[4-[[2-(4-Chlorophenyl)-4,4-dimethylcyclohexen-1-yl]methyl]piperazin-1-yl]phenyl]sulfonyl-5-fluoro-6-(1-methyl-1H-indazol-6-yl)pyridine-2-carboxamide], with 50 to 90%; and `CC1(C)CCC(CN2CCN(c3ccc(S(=O)(=O)NC(=O)c4ccc(OCc5ccccc5)c([N+](=O)[O-])c4)cc3)CC2)=C(c2ccc(Cl)cc2)C1` [Example 36, 4-(benzyloxy)-N-([4-[4-[[2-(4-chlorophenyl)-4,4-dimethylcyclohexen-1-yl]methyl]piperazin-1-yl]phenyl]sulfonyl)-3-nitrobenzamide], with 50 to 90%.

Consider `Cc1cn(C)nc1C(=O)NS(=O)(=O)c1ccc(N2CCN(CC3=C(c4ccc(Cl)cc4)CC(C)(C)CC3)CC2)cc1Oc1cnc2[nH]ccc2c1` [Example 76, N-[4-[4-[[2-(4-chlorophenyl)-4,4-dimethylcyclohexen-1-yl]methyl]piperazin-1-yl]-2-(1H-pyrrolo[2,3-b]pyridin-5-yloxy)phenyl]sulfonyl-1,4-dimethylpyrazole-3-carboxamide], for which the IC50 lay in the range of 10 to 100 nM. For the compound `CC1(C)CCC(CN2CCN(c3ccc(S(=O)(=O)NC(=O)c4cc(C5CC5)on4)cc3)CC2)=C(c2ccc(Cl)cc2)C1` [Example 12, N-([4-[4-[[2-(4-chlorophenyl)-4,4-dimethylcyclohexen-1-yl]methyl]piperazin-1-yl]phenyl]sulfonyl)-5-cyclopropylisoxazole-3-carboxamide], the inhibition at 1 µM is less than 50%.

On to `CC1(C)CCC(CN2CCN(c3ccc(S(=O)(=O)NC(=O)c4ccc(NCC5CCOCC5)c([N+](=O)[O-])c4)c(Oc4cnc5[nH]ccc5c4)c3)CC2)=C(c2ccc(Cl)cc2)C1` [Example 100, N-[4-[4-[[2-(4-chlorophenyl)-4,4-dimethylcyclohexen-1-yl]methyl]piperazin-1-yl]-2-(1H-pyrrolo[2,3-b]pyridin-5-yloxy)phenyl]sulfonyl-3-nitro-4-(oxan-4-ylmethylamino)benzamide], for which the IC50 is less than 10 nM. With `CC1(C)CCC(CN2CCN(c3ccc(S(=O)(=O)NC(=O)c4ccncc4C(F)(F)F)cc3)CC2)=C(c2ccc(Cl)cc2)C1` [Example 22, N-([4-[4-[[2-(4-chlorophenyl)-4,4-dimethylcyclohexen-1-yl]methyl]piperazin-1-yl]phenyl]sulfonyl)-3-(trifluoromethyl)pyridine-4-carboxamide], the inhibition at 1 µM is 50 to 90%. The same measure, in the same setting: then `Cc1ccc(CC(=O)NS(=O)(=O)c2ccc(N3CCN(CC4=C(c5ccc(Cl)cc5)CC(C)(C)CC4)CC3)cc2)cn1` [Example 26, N-([4-[4-[[2-(4-chlorophenyl)-4,4-dimethylcyclohexen-1-yl]methyl]piperazin-1-yl]phenyl]sulfonyl)-2-(6-methylpyridin-3-yl)acetamide], with less than 50%.

With `Cc1c(Cl)c(C(=O)NS(=O)(=O)c2ccc(N3CCN(CC4=C(c5ccc(Cl)cc5)CC(C)(C)CC4)CC3)cc2Oc2cnc3[nH]ccc3c2)cc([N+](=O)[O-])c1OCc1ccc(Cl)cc1` [Example 88, 2-Chloro-N-[4-[4-[[2-(4-chlorophenyl)-4,4-dimethylcyclohexen-1-yl]methyl]piperazin-1-yl]-2-(1H-pyrrolo[2,3-b]pyridin-5-yloxy)phenyl]sulfonyl-4-[(4-chlorophenyl)methoxy]-3-methyl-5-nitrobenzamide], the IC50 was less than 10 nM. Turning to `CC1(C)CCC(CN2CCN(c3ccc(S(=O)(=O)NC(=O)c4ccc(F)c(Br)n4)cc3)CC2)=C(c2ccc(Cl)cc2)C1` [Example 33, 6-bromo-N-([4-[4-[[2-(4-chlorophenyl)-4,4-dimethylcyclohexen-1-yl]methyl]piperazin-1-yl]phenyl]sulfonyl)-5-fluoropyridine-2-carboxamide], the concentration for half-maximal inhibition (IC50) was in the range of 10 to 100 nM.

Regarding `CC1(C)CCC(CN2CCN(c3ccc(S(=O)(=O)NC(=O)c4cccc(C(F)(F)F)n4)cc3)CC2)=C(c2ccc(Cl)cc2)C1` [Example 21, N-([4-[4-[[2-(4-chlorophenyl)-4,4-dimethylcyclohexen-1-yl]methyl]piperazin-1-yl]phenyl]sulfonyl)-6-(trifluoromethyl)pyridine-2-carboxamide], the inhibition at 1 µM is 50 to 90%. For `CC1(C)CCC(CN2CCN(c3ccc(S(=O)(=O)NC(=O)c4ccc5ccsc5n4)c(Oc4cnc5[nH]ccc5c4)c3)CC2)=C(c2ccc(Cl)cc2)C1` [Example 92, N-[4-[4-[[2-(4-chlorophenyl)-4,4-dimethylcyclohexen-1-yl]methyl]piperazin-1-yl]-2-(1H-pyrrolo[2,3-b]pyridin-5-yloxy)phenyl]sulfonylthieno[2,3-b]pyridine-6-carboxamide], the IC50 was 100 to 1000 nM.
